The text below walks through data of patent US8754073B2, “Substituted piperazino-dihydrothienopyrimidines” (Boehringer Ingelheim International GmbH, priority 2007, dated 2014).

Each structure is given as a SMILES string.

The target in one experiment is PDE4B (Homo sapiens, UniProt Q07343). As to the kind of experiment: Scintillation Proximity Assay (SPA) of PDE4B enzyme activity ([H3]-cAMP cleavage). The format is biochemical. Particulars: test substance 1 μM; one-hour incubation of [H3]-cAMP with PDE4B enzyme at 30° C. Summed up: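 SPA read-out: [H3]-cAMP incubated with PDE4B in assay buffer for 1 h at 30 °C, with and without test compound at 1 μM. Reaction stopped by adding yttrium silicate beads that bind the [H3]-AMP product; after 45 min settling, scintillation counted. Value is % inhibition at 1 μM.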
Sequence of PDE4B (Q07343 whole entry, species assumed): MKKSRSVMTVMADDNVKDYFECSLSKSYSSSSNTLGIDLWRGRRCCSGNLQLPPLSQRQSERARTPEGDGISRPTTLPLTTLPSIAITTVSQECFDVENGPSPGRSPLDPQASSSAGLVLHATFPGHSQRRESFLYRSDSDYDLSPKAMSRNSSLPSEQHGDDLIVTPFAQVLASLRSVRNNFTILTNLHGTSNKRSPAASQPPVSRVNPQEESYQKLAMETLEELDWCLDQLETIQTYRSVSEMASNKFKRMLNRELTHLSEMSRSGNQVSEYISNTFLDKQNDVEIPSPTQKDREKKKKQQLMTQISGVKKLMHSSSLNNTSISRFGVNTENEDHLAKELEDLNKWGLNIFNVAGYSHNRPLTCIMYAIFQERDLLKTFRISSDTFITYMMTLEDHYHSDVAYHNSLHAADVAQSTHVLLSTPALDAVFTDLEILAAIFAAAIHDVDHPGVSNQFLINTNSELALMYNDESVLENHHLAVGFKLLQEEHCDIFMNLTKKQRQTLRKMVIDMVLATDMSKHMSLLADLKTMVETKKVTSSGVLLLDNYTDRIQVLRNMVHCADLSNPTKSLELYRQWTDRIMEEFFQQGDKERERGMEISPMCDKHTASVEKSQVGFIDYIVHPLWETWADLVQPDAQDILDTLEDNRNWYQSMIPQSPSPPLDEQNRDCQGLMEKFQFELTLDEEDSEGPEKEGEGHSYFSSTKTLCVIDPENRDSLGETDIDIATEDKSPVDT
As to `[O-][S+]1CCc2nc(N3CCC(c4nc(-c5ccncc5)no4)CC3)nc(NC3(CO)CC3)c21` (centres unmarked) [Example 116], the inhibition (as a rule, the percentage by which the read-out fell short of the control) at 1 µM was 94%.

With `[O-][S+]1CCc2nc(N3CCC(c4cc5ccccc5o4)CC3)nc(Nc3cccc(F)c3)c21` (centres unmarked) [Example 141], the inhibition at 1 µM was 97%.

Molecule `COC(=O)c1ccc(C2CCN(c3nc4c(c(N[C@@H](CO)C(C)C)n3)[S+]([O-])CC4)CC2)cc1` (some centres unmarked) [Example 150] gave an inhibition at 1 µM of 94%.

`CC(C)[C@H](CO)Nc1nc(N2CCC(c3c[nH]c4ccccc34)CC2)nc2c1[S+]([O-])CC2` (some centres unmarked) [Example 12] had an inhibition at 1 µM of 94%.

As for `[O-][S+]1CCc2nc(N3CCC(c4cc(Cl)cc(Cl)c4)CC3)nc(NC3(CO)CC3)c21` (centres unmarked) [Example 91, (1-{2-[4-(3,5-Dichlorophenyl)-Piperidin-1-Yl]-5-Oxo-6,7-Dihydro-5H-5λ^4-Thieno[3,2-d]Pyrimidin-4-Ylamino}-Cyclopropyl)-Methanol], at 1 µM the inhibition was 94%.

The molecule `CN1C(=O)Nc2ccccc2C12CCN(c1nc3c(c(Nc4cccc(F)c4)n1)[S+]([O-])CC3)CC2` (centres unmarked) [Example 73, 1-(4-(3-fluorophenylamino)-5-oxo-6,7-dihydro-5H-5λ^4-thieno[3,2-d]pyrimidin-2-yl)-3′-methyl-1′H-spiro[piperidin-4,4′-quinazolin]-2′(3′H)-one] came in with an inhibition at 1 µM of 94%.

Molecule `O=C1Nc2ccccc2C2(CCN(c3nc4c(c(Nc5cccc(F)c5)n3)[S+]([O-])CC4)CC2)N1` (centres unmarked) [Example 81] returned an inhibition at 1 µM of 83%.

`CC(C)[C@H](CO)Nc1nc(N2CCC3(CC2)OCc2ccccc23)nc2c1[S+]([O-])CC2` (some centres unmarked) [Example 156] gave an inhibition at 1 µM of 64%.

As to `[O-][S+]1CCc2nc(N3CCC(c4cc(-c5ccco5)n[nH]4)CC3)nc(NC3(CO)CC3)c21` (centres unmarked) [Example 114], 1 µM produced 96% inhibition.

Take `[O-][S+]1CCc2nc(N3CCC(c4cc(-c5ccco5)n[nH]4)CC3)nc(Nc3cccc(F)c3)c21` (centres unmarked) [Example 145, (3-Fluorophenyl)-{2-[4-(5-Furan-2-Yl-2H-Pyrazol-3-Yl)-Piperidin-1-Yl]-5-Oxo-6,7-Dihydro-5H-5λ^4-Thieno[3,2-d]Pyrimidin-4-Yl}-Amine Trifluoracetat]: the inhibition at 1 µM turned out to be 96%.

In turn, `CN1C[C@@H](Nc2nc(N3CCC4(CC3)NC(=O)Nc3ccccc34)nc3c2[S+]([O-])CC3)CCC1=O` (some centres unmarked) [Example 51] displayed an inhibition at 1 µM of 83%.

With `[O-][S+]1CCc2nc(N3CCC(c4nnc5ccccn45)CC3)nc(NC3CCOCC3)c21` (centres unmarked) [Example 124], the inhibition at 1 µM is 89%.

`CC(C)c1noc(C2CCN(c3nc4c(c(Nc5cccc(F)c5)n3)[S+]([O-])CC4)CC2)n1` (centres unmarked) [Example 144] returned an inhibition at 1 µM of 94%.

As for `[O-][S+]1CCc2nc(N3CCC(c4ccncc4)CC3)nc(NC3CCOCC3)c21` (centres unmarked) [Example 63], the inhibition at 1 µM is 92%.

On to `[O-][S+]1CCc2nc(N3CCC(c4noc5ccccc45)CC3)nc(Nc3cccc(F)c3)c21` (centres unmarked) [Example 75, [2-(4-Benzo[d]Isoxazol-3-Yl-Piperidin-1-Yl)-5-Oxo-6,7-6,7-Dihydro-5H-5λ^4-Thieno[3,2-d]Pyrimidin-4-Yl]-(3-Fluorophenyl)-Amine], for which the inhibition at 1 µM amounted to 97%.

Regarding `[O-][S+]1CCc2nc(N3CCC(c4ccc(C(F)(F)F)cc4)CC3)nc(NC3CCOCC3)c21` (centres unmarked) [Example 96, {5-Oxo-2-[4-(4-Trifluoromethylphenyl)-Piperidin-1-Yl]-6,7-Dihydro-5H-5λ^4-Thieno[3,2-d]Pyrimidin-4-Yl}-(Tetrahydropyran-4-Yl)-Amine], the inhibition at 1 µM turned out to be 94%.

On to `CN1C[C@@H](Nc2nc(N3CCC4(CC3)OC(=O)Nc3ccccc34)nc3c2[S+]([O-])CC3)CCC1=O` (some centres unmarked) [Example 50], for which the inhibition at 1 µM worked out at 95%.

The molecule `N#CC1(c2ccccc2)CCN(c2nc3c(c(NC4CCOCC4)n2)[S+]([O-])CC3)CC1` (centres unmarked) [Example 70] came in with an inhibition at 1 µM of 95%.

The molecule `[O-][S+]1CCc2nc(N3CCC(c4ccncc4)CC3)nc(NC3(CO)CC3)c21` (centres unmarked) [Example 34] came in with an inhibition at 1 µM of 92%.

Regarding `CN1C[C@@H](Nc2nc(N3CCC(c4cccc(Cl)c4)CC3)nc3c2[S+]([O-])CC3)CCC1=O` (some centres unmarked) [Example 54], the inhibition at 1 µM is 97%.

Turning to `[O-][S+]1CCc2nc(N3CCC(c4c[nH]c5ccccc45)CC3)nc(NC3(CO)CC3)c21` (centres unmarked) [Example 26], testing at 1 µM gave an inhibition of 96%.

The experiment is the same for the next values; noted with them: test substance 1 μM; one-hour incubation with [H3]-cAMP at 30° C.
As to `[O-][S+]1CCc2nc(N3CCC(Oc4ccccn4)CC3)nc(NC3CCOCC3)c21` (centres unmarked) [Example 173], the inhibition at 1 µM came to 95%.

In turn, `[O-][S+]1CCc2nc(N3CCC(c4cc(-c5cccs5)[nH]n4)CC3)nc(NC3(CO)CC3)c21` (centres unmarked) [Example 285] gave an inhibition at 1 µM of 90%.

Turning to `[O-][S+]1CCc2nc(N3CCC(c4nc5c(o4)CCCC5)CC3)nc(NC3(CO)CC3)c21` (centres unmarked) [Example 328], the inhibition at 1 µM was found to be 93%.

As for `CN1CCC(N(C)C(=O)c2ccc(OC3CCN(c4nc5c(c(NC6CCOCC6)n4)[S+]([O-])CC5)CC3)cc2)CC1` (centres unmarked) [Example 241], the inhibition at 1 µM was 93%.

Consider `[O-][S+]1CCc2nc(N3CCC(c4ccccc4)CC3)nc(NC3(CO)CC3)c21` (centres unmarked) [Example 164], for which the inhibition at 1 µM stood at 92%.

`CN1C[C@@H](Nc2nc(N3CCC(c4nc5ccc(Cl)cc5o4)CC3)nc3c2[S+]([O-])CC3)CCC1=O` (some centres unmarked) [Example 194, 5-{2-[4-(6-Chlorbenzoxazol-2-yl)-piperidin-1-yl]-5-oxo-6,7-dihydro-5H-5λ^4-thieno[3,2-d]pyrimidin-4-ylamino}-1-methylpiperidin-2-one] returned an inhibition at 1 µM of 97%.

On to `Cn1c(C2CCN(c3nc4c(c(NC5CCOCC5)n3)[S+]([O-])CC4)CC2)nc2cnccc21` (centres unmarked) [Example 210, {2-[4-(1-methyl-1H-imidazo[4,5-c]pyridin-2-yl)-piperidin-1-yl]-5-oxo-6,7-dihydro-5H-5λ^4-thieno[3,2-d]pyrimidin-4-yl}-(tetrahydropyran-4-yl)-amine], for which testing at 1 µM gave an inhibition of 85%.

With `[O-][S+]1CCc2nc(N3CCC(COCc4ccccc4)(c4ccc(Cl)cc4)CC3)nc(NC3(CO)CC3)c21` (centres unmarked) [Example 309], the inhibition at 1 µM turned out to be 92%.

Regarding `[O-][S+]1CCc2nc(N3CCC(O)(c4ccc(Cl)cc4)CC3)nc(NC3(CO)CC3)c21` (centres unmarked) [Example 289], at 1 µM the inhibition was 81%.

`O=C(c1ccc(F)cc1)C1(c2ccc(F)cc2)CCN(c2nc3c(c(NC4(CO)CC4)n2)[S+]([O-])CC3)CC1` (centres unmarked) [Example 308] returned an inhibition at 1 µM of 89%.

For the molecule `COCC(=O)NCC1(c2ccccc2)CCN(c2nc3c(c(NC4CCOCC4)n2)[S+]([O-])CC3)CC1` (centres unmarked) [Example 217], testing at 1 µM gave an inhibition of 88%.

On to `CC(C)(O)C1(Nc2nc(N3CCC(c4ccc(Cl)cc4)CC3)nc3c2[S+]([O-])CC3)CC1` (centres unmarked) [Example 185, 2-(1-{2-[4-(4-chlorophenyl)-piperidin-1-yl]-5-oxo-6,7-dihydro-5H-5λ^4-thieno[3,2-d]pyrimidin-4-ylamino}-cyclopropyl)-propan-2-ol], for which the inhibition at 1 µM came out at 94%.

As to `CN(C)CC(=O)NCC1(c2ccccc2)CCN(c2nc3c(c(N[C@H]4CCC(=O)N(C)C4)n2)[S+]([O-])CC3)CC1` (some centres unmarked) [Example 206, 2-dimethylamino-N-{1-[4-(1-methyl-6-oxopiperidin-3-ylamino)-5-oxo-6,7-dihydro-5H-5λ^4-thieno[3,2-d]pyrimidin-2-yl]-4-phenylpiperidin-4-ylmethyl}-acetamide], the inhibition at 1 µM turned out to be 95%.

Take `CC(C)C(=O)N1CCc2ccc(OC3CCN(c4nc5c(c(NC6CCOCC6)n4)[S+]([O-])CC5)CC3)cc2CC1` (centres unmarked) [Example 215]: the inhibition at 1 µM turned out to be 79%.

In turn, `CC(C)[C@H](CO)Nc1nc(N2CCC(CN(C)S(C)(=O)=O)(c3ccccc3)CC2)nc2c1[S+]([O-])CC2` (some centres unmarked) [Example 331] returned an inhibition at 1 µM of 85%.

`CS(=O)(=O)NCC1(c2ccccc2)CCN(c2nc3c(c(Nc4cccc(F)c4)n2)[S+]([O-])CC3)CC1` (centres unmarked) [Example 327] displayed an inhibition at 1 µM of 83%.

In turn, `O=C(C1CC1)N1CCc2ccc(OC3CCN(c4nc5c(c(NC6CCOCC6)n4)[S+]([O-])CC5)CC3)cc2CC1` (centres unmarked) [Example 214, cyclopropyl-(7-{1-[5-oxo-4-(tetrahydropyran-4-ylamino)-6,7-dihydro-5H-5λ^4-thieno[3,2-d]pyrimidin-2-yl]-piperidin-4-yloxy}-1,2,4,5-tetrahydrobenzo[d]azepin-3-yl)-methanone] yielded an inhibition at 1 µM of 94%.

In the case of `CN1C[C@@H](Nc2nc(N3CCC(O)(c4ccc(Cl)cc4)CC3)nc3c2[S+]([O-])CC3)CCC1=O` (some centres unmarked) [Example 254], the inhibition at 1 µM is 92%.

`O=C(c1ccc(C2CCN(c3nc4c(c(NC5CCOCC5)n3)[S+]([O-])CC4)CC2)cc1)N(C1CCOCC1)C1CC1` (centres unmarked) [Example 225] gave an inhibition at 1 µM of 89%.

As to `[O-][S+]1CCc2nc(N3CCC(c4nc5c(o4)CCCC5)CC3)nc(NC3CCOCC3)c21` (centres unmarked) [Example 329], 1 µM produced 95% inhibition.

Take `CC(C)(C)OC(=O)N[C@@H]1CC1Nc1nc(N2CCC(c3ccc(Cl)cc3)CC2)nc2c1[S+]([O-])CC2` (some centres unmarked) [Example 222, tert-butyl (2-{2-[4-(4-chlorophenyl)-piperidin-1-yl]-5-oxo-6,7-dihydro-5H-5λ^4-thieno[3,2-d]pyrimidin-4-ylamino}-cyclopropyl)-carbamidate]: the inhibition at 1 µM amounted to 89%.

Regarding `CS(=O)(=O)NCC1(c2ccccc2)CCN(c2nc3c(c(NC4(CO)CC4)n2)[S+]([O-])CC3)CC1` (centres unmarked) [Example 324], at 1 µM the inhibition was 89%.

`CN(C(=O)c1ccc(OC2CCN(c3nc4c(c(NC5CCOCC5)n3)[S+]([O-])CC4)CC2)cc1)C1CCOCC1` (centres unmarked) [Example 237] returned an inhibition at 1 µM of 95%.

Take `[O-][S+]1CCc2nc(N3CCC(Oc4ccccc4Cl)CC3)nc(NC3CCOCC3)c21` (centres unmarked) [Example 179]: at 1 µM the inhibition was 75%.

On to `CN(CC1(c2ccccc2)CCN(c2nc3c(c(NC4(CO)CC4)n2)[S+]([O-])CC3)CC1)S(C)(=O)=O` (centres unmarked) [Example 330], for which the inhibition at 1 µM stood at 92%.

Molecule `O=C(c1ccc(F)cc1)C1(c2ccc(F)cc2)CCN(c2nc3c(c(Nc4cccc(F)c4)n2)[S+]([O-])CC3)CC1` (centres unmarked) [Example 299] showed an inhibition at 1 µM of 90%.
